Measurements as given in patent US12239711B2, “Cereblon ligands and bifunctional compounds comprising the same” (Arvinas Operations, Inc., priority 2014, dated 2025).

Legend:
[1] = system: estrogen responsive element/promoter/luciferase reporter gene; assay: ERE Luciferase Assay in T47D-KBluc cells; assay type: cell-based, human; settings: Homo sapiens, 24 hours, luciferase activity, read-out: Target Engagement IC50
Procedure: 1. ERE Luciferase Assay for Compounds in Table 5.
T47D-KBluc cells (ATCC® #CRL_2865, T47D human breast cancer cells stably transfected with estrogen responsive element/promoter/luciferase reporter gene) were seeded into 96-well white opaque plates in RPMI growth medium supplemented with 10% fetal bovine serum (FBS) and allowed to adhere overnight in a 37° C. humidified incubator. The following day, cells were treated with PROTACs in a 12-point concentration curve (top final concentration of 300 nM with subsequent concentrations being 3-fold less with 2 pM being the lowest concentration in the assay). Each PROTAC was tested independently in two experiments on 96-well plates. After 24 hours, media was removed and lysis buffer was added to the wells. Following lysis, Bright-Glo™ Luciferase Assay Substrate (Promega, Madison WI) was added and the luciferase activity was measured using a Cytation 3 plate reader (BioTek™, Winooski, VT). Each compound was assayed in duplicate and the activity was calculated as IC50 using GraphPad Prism software (San Diego, CA).

[2] = biological target: T1, Estrogen Receptor-Alpha (ERα) (Homo sapiens, UniProt P03372); assay: Estrogen Receptor-Alpha (ERα) degradation assay in MCF-7 cells (western blot / In-Cell Western); assay type: cell-based; settings: for Dmax: MCF7, read-out: ER Dmax; for DC50: read-out: ER DC50
T1 construct: endogenous in cells; host or cells: MCF-7 (MCF7) cells
T1 sequence (P03372 1-595): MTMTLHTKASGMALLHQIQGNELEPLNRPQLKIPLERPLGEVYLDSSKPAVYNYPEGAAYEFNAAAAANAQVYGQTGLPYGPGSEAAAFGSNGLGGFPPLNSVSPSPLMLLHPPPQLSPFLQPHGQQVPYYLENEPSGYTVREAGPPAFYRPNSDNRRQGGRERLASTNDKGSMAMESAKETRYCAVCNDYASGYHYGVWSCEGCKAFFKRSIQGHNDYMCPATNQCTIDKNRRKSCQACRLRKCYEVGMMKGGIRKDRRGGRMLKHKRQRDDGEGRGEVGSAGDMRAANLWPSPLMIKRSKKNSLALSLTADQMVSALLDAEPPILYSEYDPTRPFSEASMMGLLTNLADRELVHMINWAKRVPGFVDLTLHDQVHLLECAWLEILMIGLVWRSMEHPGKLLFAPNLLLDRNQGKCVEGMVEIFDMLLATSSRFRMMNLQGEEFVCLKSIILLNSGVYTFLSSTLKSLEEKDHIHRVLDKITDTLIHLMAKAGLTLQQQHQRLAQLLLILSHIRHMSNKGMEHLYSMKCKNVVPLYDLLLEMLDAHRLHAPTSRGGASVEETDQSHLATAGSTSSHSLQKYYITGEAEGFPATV
Procedure: 2. Estrogen Receptor-Alpha (ERα) Degradation Assay in MCF-7 Cells Using Western Blot Method for Table 5.
The exemplary novel ERα degraders were assessed for their activity in degrading ERα in MCF-7 cells via western blot. The assay was carried out in the presence of 10% FBS or high percentage of human or mouse serum. Protocols of the western blot assay are described below.
MCF7 cells were grown in DMEM/F12 with 10% FBS and seeded at 24,000 cells per well in 100 μl into 96-well clear tissue culture plates. The following day, the cells were treated with PROTACs in a […] concentration curve with 100 nM being the top concentration and serial dilutions to make the other concentrations (30 nM, 10 nM, 3 nM, 1 nM, and 0.3 nM). At all concentrations, 0.01% DMSO is the final concentration in the well. The following day, the plates are aspirated, washed with 50 μl of cold PBS. The cells are lysed with 50 μl/well 4° C. Cell Lysis Buffer (Catalog #9803; Cell Signaling Technology, Danvers, MA) (20 mM Tris-HCL (pH 7.5), 150 mM NaCl, 1 mM Na2EDTA, 1 mM EGTA, 1% Triton, 2.5 mM sodium pyrophosphate, 1 mM B-glycerophosphate, 1 mM sodium vanadate, 1 ug/ml leupeptin). Lysates were clarified at 16,000×g for 10 minutes, and 2 μg of protein was subjected to SDS-PAGE analysis and followed by immunoblotting according to standard protocols. The antibodies used were ERα (Cell Signaling Technologies Catalog #8644), and Tubulin (Sigma Catalog #T9026; St. Louis, MO). Detection reagents were Clarity Western ECL substrate (Bio-Rad Catalog #170-5060; Hercules, CA).
Alternatively, MCF7 cells were grown in DMEM/F12 with 10% FBS and seeded at 24,000 cells per well in 500 μl in 24-well clear tissue culture plates. The following day, the cells were treated with PROTACs in a 5-point concentration curve (100 nM, 33 nM, 11 nM, 3.7 nM, and 1.2 nM) in the presence of 0.01% DMSO. After 72 hours, the wells are aspirated and washed with 500 μl of PBS. The cells are lysed with 100 μl/well 4° C. Cell Lysis Buffer (Catalog #9803; Cell Signaling Technology, Danvers, MA) (20 mM Tris-HCL (pH 7.5), 150 mM NaCl, 1 mM Na2EDTA, 1 mM EGTA, 1% Triton, 2.5 mM sodium pyrophosphate, 1 mM B-glycerophosphate, 1 mM sodium vanadate, 1 ug/ml leupeptin). Lysates were clarified at 16,000×g for 10 minutes, and 2 μg of protein was subjected to SDS-PAGE analysis and followed by immunoblotting according to standard protocols. The antibodies used were ERα (Cell Signaling Technologies Catalog #8644), and Tubulin (Sigma Catalog #T9026; St. Louis, MO). Detection reagents were Clarity Western ECL substrate (Bio-Rad Catalog #170-5060; Hercules, CA).
3. Estrogen Receptor-Alpha (ERα) Degradation Assay Using In-Cell Western™ Assay for Table 5.
Degradation of ERα by claimed compounds were determined in MCF7 cells using an In-Cell Western™ assay. Briefly, MCF7 cells were plated in 96-well plates (2000 cells per well in 100 μl media) and incubated at 37° C. under an atmosphere of 5% CO2 in a humidified incubator overnight. One-hundred (100) μl of media containing test compound (at 2× concentration) was added to the appropriate wells to provide 11 serially decreasing concentrations (top final concentration, 1 μM then 3-fold less for the next 10 concentrations); a vehicle control (DMSO) was also added for each compound. For each experiment, all compounds were assayed in duplicate plates. Cells were then incubated for 3 or 5 days in the above-mentioned environment. The assay was terminated by removal of media, a single wash with ice-cold PBS and the addition of 50 μl paraformaldehyde (PFA: 4% in PBS). After 15 minutes in PFA at room temperature, the cells were permeabilized in Tris-phosphate-buffered saline with Tween (0.1%) (TBST) supplemented with Triton X-100 (0.5%) for 15 minutes. Cells were then blocked in BSA (TBST with BSA, 3%) for one hour. […]

Row | IC50 [1] | Dmax [2] | DC50 [2] | SMILES
1 | 0.7 nM | ≥ 75% | 1 to 10 nM | COc1cc(N2CCN(CCC3CCN(c4ccc([C@@H]5c6ccc(O)cc6CC[C@@H]5c5ccccc5)cc4F)CC3)CC2)cc2c1C(=O)N(C1CCC(=O)NC1=O)C2 (stereo partly drawn) [compound 24, 3-[5-[4-[2-[1-[2-fluoro-4-[(1R,2S)-6-hydroxy-2-phenyl-tetralin-1-yl]phenyl]-4-piperidyl]ethyl]piperazin-1-yl]-7-methoxy-1-oxo-isoindolin-2-yl]piperidine-2,6-dione]
2 | 2 nM | 50 to 75% | 1 to 10 nM | COCCOc1c(N2CCN(CC3CCN(c4ccc([C@@H]5c6ccc(O)cc6CC[C@@H]5c5ccccc5)cc4)CC3)CC2)ccc2c1CN(C1CCC(=O)NC1=O)C2=O (stereo partly drawn) [compound 11, 3-[5-[4-[[1-[4-[(1R,2S)-6-hydroxy-2-phenyl-tetralin-1-yl]phenyl]-4-piperidyl]methyl]piperazin-1-yl]-4-(2-methoxyethoxy)-1-oxo-isoindolin-2-yl]piperidine-2,6-dione]
3 | 0.7 nM | ≥ 75% | < 1 nM | COc1cc(N2CCN(CC(=O)C3CC(Oc4ccc([C@@H]5c6ccc(O)cc6CC[C@@H]5c5ccccc5)cc4)C3)CC2)cc2c1C(=O)N(C1CCC(=O)NC1=O)C2 (stereo partly drawn) [compound 26, 3-[5-[4-[2-[3-[4-[(1R,2S)-6-hydroxy-2-phenyl-tetralin-1-yl]phenoxy]cyclobutyl]-2-oxo-ethyl]piperazin-1-yl]-7-methoxy-1-oxo-isoindolin-2-yl]piperidine-2,6-dione]
4 | 0.79 nM | ≥ 75% | 1 to 10 nM | COc1cc(N2CCN(CCCCCOc3ccc([C@@H]4c5ccc(O)cc5CC[C@@H]4c4ccccc4)cc3)CC2)cc2c1C(=O)N(C1CCC(=O)NC1=O)C2 (stereo partly drawn) [compound 2, 3-(5-(4-(5-(4-((1R,2S)-6-hydroxy-2-phenyl-1,2,3,4-tetrahydronaphthalen-1-yl)phenoxy)pentyl)piperazin-1-yl)-7-methoxy-1-oxoisoindolin-2-yl)piperidine-2,6-dione]
5 | 102 nM | 50 to 75% | ≥ 100 nM | COCCOCCOc1c(CCN2CCCN(CCCCOc3ccc([C@H]4c5ccc(O)cc5CC[C@H]4c4ccccc4)cc3)CC2)ccc2c1CN([C@H]1CCC(=O)NC1=O)C2=O [compound 7, (3S)-3-(5-{2-[4-(4-{4-[(1S,2R)-6-hydroxy-2-phenyl-1,2,3,4-tetrahydronaphthalen-1-yl]phenoxy}butyl)-1,4-diazepan-1-yl]ethyl}-4-[2-(2-methoxyethoxy)ethoxy]-1-oxo-2,3-dihydro-1H-isoindol-2-yl)piperidine-2,6-dione]
6 | > 300 nM | < 50% |  | COCCOCCOc1c(N2CCN(CC3CCN(c4ccc([C@H]5c6ccc(O)cc6CC[C@H]5c5ccccc5)cc4)CC3)CC2)ccc2c1CN(C1CCC(=O)NC1=O)C2=O (stereo partly drawn) [compound 5, 3-(5-{4-[(l-{4-[(1S,2R)-6-hydroxy-2-phenyl-1,2,3,4-tetrahydronaphthalen-1-yl]phenyl}piperidin-4-yl)methyl]piperazin-1-yl}-4-[2-(2-methoxyethoxy)ethoxy]-1-oxo-2,3-dihydro-1H-isoindol-2-yl)piperidine-2,6-dione]
7 | 2.18 nM | < 50% |  | COCCOCCOc1c(N2CCN(CC3CCN(c4ccc([C@@H]5c6ccc(O)cc6CC[C@@H]5c5ccccc5)cc4)CC3)CC2)ccc2c1CN(C1CCC(=O)NC1=O)C2=O (stereo partly drawn) [compound 6, 3-(5-{4-[(1-{4-[(1R,2S)-6-hydroxy-2-phenyl-1,2,3,4-tetrahydronaphthalen-l-yl]phenyl}piperidin-4-yl)methyl]piperazin-1-yl}-4-[2-(2-methoxyethoxy)ethoxy]-1-oxo-2,3-dihydro-1H-isoindol-2-yl)piperidine-2,6-dione]
8 | 1 nM | ≥ 75% | < 1 nM | COc1cc(N2CCN(CCCC(F)(F)COc3ccc([C@@H]4c5ccc(O)cc5CC[C@@H]4c4ccccc4)cc3)CC2)cc2c1C(=O)N(C1CCC(=O)NC1=O)C2 (stereo partly drawn) [compound 12, 3-[5-[4-[4,4-difluoro-5-[4-[(1R,2S)-6-hydroxy-2-phenyl-tetralin-1-yl]phenoxy]pentyl]piperazin-1-yl]-7-methoxy-1-oxo-isoindolin-2-yl]piperidine-2,6-dione]
9 |  | < 50% |  | COc1cc(N2CCN(CC3CCN(c4ccc([C@H]5c6ccc(O)cc6CC[C@H]5c5ccccc5)cc4)CC3)CC2)cc2c1C(=O)N(C1CCC(=O)NC1=O)C2 (some centres unmarked) [compound 31]
10 | 1.5 nM | 50 to 75% | 1 to 10 nM | COc1cc(N2CCN(Cc3cccc(COc4ccc([C@@H]5c6ccc(O)cc6CC[C@@H]5c5ccccc5)cc4)n3)CC2)cc2c1C(=O)N(C1CCC(=O)NC1=O)C2 (stereo partly drawn) [compound 17, 3-[5-[4-[[6-[[4-[(1R,2S)-6-hydroxy-2-phenyl-tetralin-1-yl]phenoxy]methyl]-2-pyridyl]methyl]piperazin-1-yl]-7-methoxy-1-oxo-isoindolin-2-yl]piperidine-2,6-dione]
11 | 0.34 nM | 50 to 75% | 1 to 10 nM | COCCOCCOc1c(CCN2CCCN(CCCCOc3ccc([C@@H]4c5ccc(O)cc5CC[C@@H]4c4ccccc4)cc3)CC2)ccc2c1CN([C@H]1CCC(=O)NC1=O)C2=O [compound 8, (3S)-3-[5-[2-[4-(4-[4-[(1R,2S)-6-hydroxy-2-phenyl-tetralin-1-yl]phenoxy]butyl]-1,4-diazepan-1-yl]ethyl]-4-[2-(2-methoxyethoxy)ethoxy]-1-oxo-isoindolin-2-yl]piperidine-2,6-dione]
